Patent US4897426A, “Method for blocking calcium channels” (New York University, priority 1989, dated 1990)
Read-outs that look alike come from different tables or passages of the source.

Assays:
[1] = system: high-threshold calcium conductance (HTCC); settings: 10^-4 M butanol; sodium channel blocked by tetrodotoxin
[2] = system: low-threshold calcium channels (LTCC); assay: Intracellular recording of low-threshold calcium rebound spike in inferior olivary cells of brain slices (LTCC blockage); assay type: cell-based, guinea pig
[3] = system: bovine platelets; settings: cited from earlier work
[4] = read-out: Blood level; one or two drinks of an alcohol-containing beverage; cited from earlier work
[5] = in vivo; cited from earlier work
[6] = system: rat brain synaptic membrane vesicles; settings: 10^-1 M; cited from earlier work
[7] = system: synaptosomes isolated from rat brains; settings: ethanol 2.5×10^-2 -1.5×10^-1 M; cited from earlier work
[8] = system: tremor; settings: cited from earlier work
[9] = system: tremor; assay: Harmaline-induced tremor, electromyogram of left platysma muscle; assay type: in vivo, Sprague-Dawley rats
Method: In order to analyze the effects of LTCC-blocking agents in vivo, octanol was administered to rats. Alcohols were diluted with physiological saline and sonicated to ensure mixing to create a concentration of alcohol around the neurons equivalent to 10^-6 M (at most). The alcohol was administered intraperitoneally at a concentration of to 10 mM. […] (Harmaline is available from Sigma Chemical Co., St. Louis, M.) The thus-induced tremor has a periodicity similar to physiological or enhanced physiological tremor.
Therefore, study of I.O. cells of mammals in which tremor has been induced with harmaline provides an excellent in vivo model for studying tremor response in mammals.
Tremor can be measured by electromyogram conducted according to Buchthal, F., et al., Acta Physio. Scand. 39: 83-104, 1957, incorporated by reference.
The electric activity in the left platysma muscle of 278 to 300 g Sprague-Dawley rats (from Taconic Farms, Germantown, N.Y.) was recorded differentially using two teflon-coated stranded silver wires (2 mm of wire exposed) placed in the belly of the muscle. The electromyogram (emg) was recorded throughout the experiment and the data were analyzed at the following times: (1) before administration of any drugs; (2) after intraperitoneal injection of 15 mg/kg harmaline; and (3) after subsequent intraperitoneal injection of 2 cc of 10 mM 1-octanol (99% octanol sonicated in physiological saline) given to create a concentration of 9.3 micrograms/g of rat body weight or 7×10^-5 M in the vicinity of the neuronal cells (if all the alcohol was to be absorbed, and none metabolized). The emg was smoothed and differentiated (to further decrease the background noise) using a Nicolet Explorer Model 4060 digital oscilloscope (from Nicolet Instrument Corp., Madison, Wis.). This instrument was also used to obtain autocorrelograms of 800-ms sections of the emg's. Autocorrelograms were obtained by superimposing 800-ms sections of the emg signals. The emerging patterns (if any) can be used to determine frequency and amplitude characteristics of the emg that may not be readily discernible from the naked emg signal.

[10] = system: squid axons; settings: octanol 10^-4 M; cited from earlier work
[11] = Solubility in aqueous media; assay type: physicochemical; settings: relative to most effective concentration for blocking LTCC
[12] = system: LTCC; assay: Voltage clamp study of LTCC in I.O. neurons; assay type: cell-based, guinea pig; settings: octanol 10^-6 M; depolarization steps of 5 mV from holding potential -80 mV
Source text: Adult Hartley guinea pigs (400-600 g) from Camm Research Institute, Wayne, N.J. were decapitated, after ether anesthesia, using a small animal guillotine. Immediately thereafter, two longitudinal sections were made along the lateral edge of the squamous portion of the occipital bone. The resulting bone slab was cut transversely, and pulled caudalward to expose the cerebellum and brain stem. […] It was then transected longitudinally in a parasagittal plane and fixed to a Vibratome Model G plate (available from Ted Pella, Inc., Tustin, Calif.) in order to obtain thin longitudinal sections. From a single brain stem, six 300-micron slices could be obtained. Following sectioning, the slices were incubated in Ringer's solution for approximately one hour. The bathing medium was kept at room temperature and a mixture of 95% O2 and 5% CO2 was bubbled into the bath during this period. Brain stem slices were removed from the incubation bath after one hour but could be kept in good condition in the bath for periods of time up to 24 hours. […]
The results presented in this Example were recorded in I.O. neurons from different parts of the nucleus. […] In these experiments, the ionic current across the membrane was measured after a voltage clamp pulse was applied across the membrane. […]

[13] = complete blockage of LTCC, for hexanol through decanol nominal, 10^-6 M at most (not fully soluble)
[14] = harmaline 15 mg/kg i.p., no alcohol
[15] = 2 cc of 10 mM 1-octanol i.p. after harmaline 15 mg/kg i.p.

Q: With `CCCCO` [butanol] as the compound, how does the “Effect on the HTCC” value [1] read?
A: absence of any effect on the HTCC

Q: What about the “Inhibition of the LTCC or rebound spike” value [2] of the same compound?
A: inhibition of the LTCC or rebound spike

Q: What about the “Preferred highest molar concentration / operative range for substantial and total blockage of LTCC: To About” value [2] of the same compound?
A: ~10^-6

Q: And the “Inhibition of calcium mobilization” value ([3]; 5×10^-2 M)?
A: inhibitors of calcium mobilization

Q: For `CCCCCCCCCCO` [decanol], which “Preferred highest molar concentration / operative range for substantial and total blockage of LTCC: From About” value [2, 13] is on record?
A: ~10^-6 M

Q: With `CCO` [ethanol] as the compound, how does the concentration [4] read?
A: ~10000 µM

Q: And the “Intoxicating and addictive properties” value [5]?
A: well-known

Q: And the “Preferred highest molar concentration / operative range for substantial and total blockage of LTCC: From About” value [2]?
A: ~10^-3

Q: What about the “Preferred highest molar concentration / operative range for substantial and total blockage of LTCC: To About” value [2] of the same compound?
A: ~10^-4

Q: And the “Inhibition of calcium influxes” value [6]?
A: inhibited calcium influxes

Q: And the “Inhibition of voltage-dependent calcium uptake” value [7]?
A: inhibited voltage-dependent calcium uptake

Q: For `COc1ccc2c3c([nH]c2c1)C(C)=NCC3` [harmaline, reference compound], which “Induction of tremor in mammals (known)” value [8] is on record?
A: known to induce tremor in mammals

Q: And the Tremor induction ([9]; harmaline 15 mg/kg i.p.)?
A: periods of generalized tremor

Q: And the “Degree of autocorrelation of emg” value [9, 14]?
A: high degree of autocorrelation

Q: And the “Dominant frequency of tremor” value [9, 14]?
A: 7.5 Hz

Q: With `CCCCCCCO` [heptanol] as the compound, how does the “Preferred highest molar concentration / operative range for substantial and total blockage of LTCC: From About” value [2, 13] read?
A: ~10^-6 M

Q: Which results are given for `CCCCCCO` [hexanol]?
A: Preferred highest molar concentration / operative range for substantial and total blockage of LTCC: From About [2, 13]: ~10^-6 M; Inhibition of calcium mobilization ([3]; 5×10^-3 (unit not given)): inhibitors of calcium mobilization

Q: Which “Preferred highest molar concentration / operative range for substantial and total blockage of LTCC: From About” value [2, 13] does the source give for `CCCCCCCCCO` [nonanol] here?
A: ~10^-6 M

Q: For `CCCCCCCCO` [octanol, 1-octanol], which “Blockage of calcium-dependent rebound potentials (LTCC)” value ([2]; 10^-6 M octanol in bath, sodium spike blocked with 10^-6 M tetrodotoxin) is on record?
A: complete blockage of the calcium-dependent rebound potentials

Q: And the “Blockage of the rebound calcium spike following membrane hyperpolarization” value ([2]; 10^-6 M octanol, hyperpolarizing square current pulse, 10^-6 M tetrodotoxin)?
A: blocked

Q: And the “Preferred highest molar concentration / operative range for substantial and total blockage of LTCC: From About” value [2, 13]?
A: ~10^-6 M

Q: What about the “Observed intracellular calcium concentration” value [10] of the same compound?
A: apparent increase in the observed intracellular calcium concentration

Q: What about the Baseline muscle activity [9, 15] of the same compound?
A: reduced below control levels

Q: What about the “Dominant frequency of emg” value [9, 15] of the same compound?
A: 10 Hz

Q: What about the “Tremor after harmaline and alcohol” value [9, 15] of the same compound?
A: the tremor stopped

Q: What about the “Solubility in aqueous media” value [11] of the same compound?
A: corresponds closely to the most effective concentration for blocking the LTCC

Q: And the “Blockage of low-threshold calcium ionic current” value [12]?
A: completely blocked the ionic conductance

Q: For `CCCCCO` [pentanol], which “Preferred highest molar concentration / operative range for substantial and total blockage of LTCC: From About” value [2, 13] is on record?
A: ~10^-6 M
